By IC50 is commonly meant the midpoint of a concentration-inhibition curve.

For assay [1], the system named is growth plates of proximal tibiae. Description: Growth plate senescence and longitudinal bone growth in KY19382-treated mice. It counts as in vivo, mouse. The procedure: Figure 5. The effects of KY19382 on growth plate senescence and longitudinal bone growth. (A-I) KY19382 (0.1 mg/kg) was administered to 7-wk-old mice (A-E) or 3-wk-old mice (F-I) by daily intraperitoneal injection for 2 wk (n = 7). H&E staining, IHC analyses with the indicated antibodies, and TRAP staining in the growth plates of proximal tibiae treated with KY19382 (A, F). Quantitative analyses of the cell number per column (mean ± SEM, n = 7; t test, ***P < 0.0005) (B) or the height (mean ± SEM, n = 7; t test, ***P < 0.0005) (G) of resting zone and proliferative zone (RZ&PZ) and hypertrophic zone (HZ) in the growth plates of proximal tibiae. Quantitative analyses of BrdU-positive cells in the growth plates (mean ± SEM, n = 5; t test, ***P < 0.0005) (C, H). Quantitative analyses of the number of TRAP-positive foci along 250 μm of the cartilage/bone interface (mean ± SEM, n = 3; t test, *P < 0.05) (D, I). Immunoblot analyses with the indicated antibodies in the growth plate of proximal tibiae of mice treated with KY19382 (E). Scale bars, 50 μm. (J) 3-wk-old mice were intraperitoneally injected with KY19382 (0.1 mg/kg) daily for 10 wk. Representative radiographs are shown (left), and tibial length was measured (right) (mean ± SEM, n = 7-15; t test, ***P < 0.0005). The area within the dashed lines indicates the growth plate zone. n.s., no significance; TRAP, tartrate-resistant acid phosphatase. Cxxc5^-/- mice were established in a previous study ([Kim et al, 2015]). To manipulate growth plate senescence by estrogen, 3-wk-old Cxxc5^+/+ and Cxxc5^-/- male mice received weekly i.m. injections of either 70 μg/kg estradiol (E2) cypionate (Sigma-Aldrich) or vehicle (cottonseed oil) for 3 wk. To investigate the effects of KY19382 treatment on longitudinal bone growth, C57BL/6 male mice were purchased from KOATECH (Gyeonggido, Korea). KY19382 (0.1 mg/kg) was administered daily by i.p. injection to 3- and 7-wk-old mice for 2 wk or to 3-wk-old mice for 10 wk. For BrdU labeling experiments, the mice were i.p. injected with 50 mg/kg BrdU (Sigma-Aldrich) before 24 h to euthanize. All animal procedures were approved by the Institutional Animal Care and Use Committee of Yonsei University (Korea) and conducted based on the guidelines of the Korean Food and Drug Administration. Plain radiographs were taken using an X-ray apparatus (KODAK DXS 4000 Pro SYSTEM; Carestream Health). The tissues were fixed in 4% PFA, decalcified in 10% EDTA (pH 7.4), dehydrated, embedded in paraffin, and sectioned to 4-μm thickness (Leica Microsystems). The tissues sections were rehydrated and used for further analyses, including H&E, TRAP, and IHC staining. To perform IHC staining, the sections were incubated with citrate buffer (pH 6.0) at 80°C for 30 min, with 0.05% trypsin working solution (pH 7.8) for 30 min at 37°C, or with 0.5% pepsin (Sigma-Aldrich) for 15 min at 37°C. Then, the sections were blocked with 5% normal goat serum (Vector Laboratories) and 0.3% Triton X-100 in PBS for 1 h at room temperature. For 3,3'-diaminobensidine (DAB) staining, the sections were incubated with 0.345% H2O2 for 15 min. Before incubating the sections with mouse primary antibody, mouse IgG was blocked using a M.O.M kit (Vector Laboratories). The sections were incubated at 4°C overnight with the following primary antibodies: anti-β-catenin (#610154; 1:50; BD Bioscience), anti-CXXC5 (1:200; lab-made) anti-BrdU ([…]; 1:200; DAKO), anti-COL2A1 (PA5-11462; 1:100; Thermo Fisher Scientific), anti-Ki67 (ab15580; 1:200; Abcam), and anti-RUNX2 (ab23981; 1:200; Abcam). Then, the sections were incubated at room temperature for 1 h with biotinylated anti-mouse (BA-9200; 1:200; Vector Laboratories) or biotinylated anti-rabbit (BA-1000; 1:200; Vector Laboratories) secondary antibodies. The sections were then incubated in avidin-biotin complex solutions (Vector Laboratories), stained with a DAB kit (Vector Laboratories) for 3-30 min, and counterstained with methyl green (Sigma-Aldrich). […]

The target in another assay is GSK3β (human) (Homo sapiens, UniProt P49841). Description: GSK3β kinase assay. Type of assay: biochemical. The note with it: dose–response curve, n = 3; read-out: IC50, in vitro GSK3β activity. The procedure:
GSK3β (human) was incubated with 8 mM MOPS (pH 7.0), 0.2 mM EDTA, 20 μM […](p) EDEEE (phospho-GS2 peptide), 10 mM Mg acetate, and [γ-33P-ATP] (specific activity ∼500 cpm/pmol, concentration as required). The reaction was initiated by the addition of the Mg-ATP mixture. After incubation for 40 min at room temperature, the reaction was stopped by addition of 3% phosphoric acid solution. 10 μl of the reaction was then spotted onto a P30 filtermat and washed three times for 5 min in 50 mM phosphoric acid and once in methanol before drying and scintillation counting.

Where [2] appears, read: 3-wk-old mice, 0.1 mg/kg i.p. daily for 2 wk.
Where [3] appears, read: 7-wk-old mice, 0.1 mg/kg i.p. daily for 2 wk.

Sequence of GSK3β (human) (P49841 whole entry): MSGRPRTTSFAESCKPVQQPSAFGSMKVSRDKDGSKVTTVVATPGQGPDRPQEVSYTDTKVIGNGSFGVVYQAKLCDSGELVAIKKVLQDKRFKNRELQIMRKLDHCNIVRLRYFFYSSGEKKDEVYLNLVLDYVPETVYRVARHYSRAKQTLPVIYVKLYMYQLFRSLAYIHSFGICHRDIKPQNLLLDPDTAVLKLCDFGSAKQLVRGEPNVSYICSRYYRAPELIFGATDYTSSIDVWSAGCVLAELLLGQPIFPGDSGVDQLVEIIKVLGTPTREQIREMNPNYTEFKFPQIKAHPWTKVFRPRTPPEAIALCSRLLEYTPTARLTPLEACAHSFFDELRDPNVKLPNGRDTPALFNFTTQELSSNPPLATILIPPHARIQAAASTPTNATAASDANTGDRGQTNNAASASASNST

Consider `CON=C1C(=C2C(=O)Nc3cc(Cl)c(Cl)cc32)Nc2ccccc21` [KY19382, 5,6-dichloroindirubin-3′-methoxime], for which, in assay [1] (setting [2]), the “BrdU-positive cells in growth plate” value is given as “elevated” and the “height of each growth plate zone” value is reported as “elevated”. Besides, in assay [1] (3-wk-old mice, 0.1 mg/kg i.p. daily for 2 wk, vs vehicle), the “number of TRAP-positive foci in the growth plate/trabecular interface” value is recorded as “not different”. In addition, the length of tibiae entry in assay [1] (3-wk-old mice, 0.1 mg/kg i.p. daily for 10 wk, vs vehicle) is reported as “significantly increased”. Also, in assay [1] (setting [3]), the “nuclear β-catenin in growth plate chondrocytes” value was “dramatically increased”; the “numbers of proliferative and hypertrophic chondrocytes per column” value was “increased numbers”; the “total growth plate height (COL2A1 immunostaining)” value was “significantly increased”. The “TRAP-positive foci at cartilage/bone interface” value in assay [1] (7-wk-old mice, 0.1 mg/kg i.p. daily for 2 wk, vs vehicle) was “elevated”. Further, the IC50 on GSK3β (human) stood at 0.01 µM.

The values above are taken from article PMC6458850, “CXXC5 mediates growth plate senescence and is a target for enhancement of longitudinal bone growth” (Life Science Alliance, 2019).
